Our source for the EC50 and IC50 values is patent publication US20230226137A1, “Novel Pharmaceutical Composition for Treating Dry Eye Syndrome” (Novacell Technology Inc., priority 2020, published 2023).

Non-standard residues stand in square brackets, D forms with d. Residues, ends and D or L forms follow the SMILES beside them. *: point of attachment. Octanoyl = CCCCCCCC(=O)*

The term EC50 denotes the midpoint of the concentration-response curve. What is called IC50 is the concentration that inhibits the measured activity by half. Read a high IC50 as weaker potency in that assay.

Common to all, as to assay type: cell-based
For one test, the target named is T1, FPR2 (Homo sapiens, UniProt P25090).
T1 construct: expressed in transfected cells; host or cells: RBL cells (FPR2-overexpressing)
T1 sequence (P25090 1-351): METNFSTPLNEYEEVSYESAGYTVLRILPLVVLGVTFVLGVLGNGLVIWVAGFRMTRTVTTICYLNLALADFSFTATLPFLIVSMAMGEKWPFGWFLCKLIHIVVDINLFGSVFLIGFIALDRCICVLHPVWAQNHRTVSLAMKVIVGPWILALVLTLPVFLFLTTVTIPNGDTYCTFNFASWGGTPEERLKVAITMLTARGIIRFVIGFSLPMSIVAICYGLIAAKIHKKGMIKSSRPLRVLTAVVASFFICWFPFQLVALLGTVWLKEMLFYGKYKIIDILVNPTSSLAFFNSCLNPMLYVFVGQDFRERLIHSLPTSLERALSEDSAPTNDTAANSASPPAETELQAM
Briefly: FPR2 activation, intracellular calcium (Fura-2/AM) in RBL cells overexpressing FPR2. Particulars: calcium ion increase in FPR2-overexpressing RBL cells. The procedure: The present inventors have observed changes in calcium ion permeability in order to confirm whether or not the immunomodulatory and antibacterial peptide candidates of the present invention activates the immunomodulatory function of a living organism. Specifically, the concentration of calcium ions in cells was measured in order to confirm whether the peptide activates FPR2. To this end, the present inventors used RBL cells in which FPR2 was not expressed, RBL cells in which FPR1 was overexpressed (FPR1-RBL), and RBL cells in which FPR2 was overexpressed, and used Fura-2/AM, a staining material having a strong binding affinity for calcium, in a method for sensitively measuring free intracellular calcium ions. That is, the cells were cultured in RPMI medium containing 10% fetal bovine serum, centrifuged in the mid-log phase (1-3×10^7 cells/mL), and harvested. Then, the cells were washed several times with RPMI medium containing no fetal bovine serum and resuspended in RPMI medium to a concentration of 1×10^7 cells/mL. Then, the Fura-2/AM at a final concentration of 3 μM was added thereto and incubated in an incubator (37° C., 5% CO2) for 45 minutes with continuous stirring. After the appropriate time elapsed, the cells were harvested and washed again several times with RPMI medium. Then, the cells were suspended in an appropriate amount of RPMI medium, in which sulfinpyrazone was supplemented at a concentration of 250 μM, so as to prevent the Fura-2 that entered into the cells from being released to the outside of the cells. Approximately 2×10^6 cells were taken each time and harvested by rapid centrifugation and resuspended in 1 mL of Locke solution in which EGTA was added but no calcium ions were added, and the absorbance ratios at two wavelengths of 340 nm and 380 nm were monitored on a spectrophotometer. After treating with the peptide according to the present invention at different concentrations (1 μM, 0.1 μM, and 0.01 μM) at intervals of about 1 minute, the difference in absorbance at two wavelengths was examined and this was later converted to the concentration of calcium ions freed into the cells according to the method of Grynkiewicz.
(A change in cytosolic calcium serves as a functional read-out for many receptors and channels.)

Another test has as its system Pseudomonas aeruginosa. Conditions: 18 h. The procedure:
(§1) In addition, in order to measure the antibacterial activity of the peptide, Staphylococcus aureus, which is a gram-positive bacterium, and Pseudomonas aeruginosa, which is a gram-negative bacterium, were prepared, followed by 4th smearing on a flat medium of an agar, and culturing was performed overnight in a 36° C. incubator. The next day, strain colonies generated on the agar plate medium were inoculated into 3 mL-nutrient broth and cultured overnight in a shaking incubator at 36° C. and 220 rpm. The next day, the bacteria were diluted to measure absorbance at 600 nm, the absorbance was adjusted to 0.5, and the bacteria were diluted in a nutrient broth at a ratio of 1:100. Then, the peptides prepared in the Example were sequentially diluted in a nutrient broth at concentrations of 0, 1.25, 2.5, 5, 10, 20, and 40 μM, prepared 1 mL each, and then 1 mL of the diluted bacteria was inoculated. Then, the mixture was stirred at 36° C. and 220 rpm and incubated for 18 hours, and then the absorbance was measured at 600 nm.

The next test has as its system Staphylococcus aureus. Conditions: 18 h. The procedure: as §1

`CCCCCCCC(=O)N[C@@H](CCCCN)C(=O)N[C@@H](Cc1ccccc1)C(=O)N[C@@H](CCCCN)C(=O)N[C@@H](Cc1c[nH]c2ccccc12)C(=O)N[C@@H](CCCNC(=N)N)C(=O)N[C@@H](Cc1ccc(O)cc1)C(=O)N[C@H](CCSC)C(N)=O` [compound 2] (Octanoyl-KFKWRY[dM]-NH2): the concentration giving a half-maximal response (EC50) on FPR2 was 0.0929 µM. For the same molecule, the IC50 in the test with Pseudomonas aeruginosa was 4.69 µM; with Staphylococcus aureus, 21 µM.
In the same order, the values of `CSCC[C@@H](NC(=O)[C@H](Cc1ccc(O)cc1)NC(=O)[C@H](CCCNC(=N)N)NC(=O)[C@H](Cc1c[nH]c2ccccc12)NC(=O)[C@H](CCCCN)NC(=O)[C@H](Cc1ccccc1)NC(=O)[C@@H](N)CCCCN)C(N)=O` [compound 3] (H-KFKWRY[dM]-NH2) are 0.0654 µM, 7.41 µM and 19.8 µM.
The matching figures for `CCCCCCCC(=O)N[C@@H](CCCCN)C(=O)N[C@@H](Cc1c[nH]c2ccccc12)C(=O)N[C@@H](CCCCN)C(=O)N[C@@H](Cc1c[nH]c2ccccc12)C(=O)N[C@@H](CCCNC(=N)N)C(=O)N[C@@H](Cc1ccc(O)cc1)C(=O)N[C@H](CCSC)C(N)=O` [compound 4] (Octanoyl-KWKWRY[dM]-NH2): 0.108 µM, 8.48 µM and 12.3 µM.
As for `CCCCCCCC(=O)N[C@@H](CCCNC(=N)N)C(=O)N[C@@H](Cc1c[nH]c2ccccc12)C(=O)N[C@@H](CCCNC(=N)N)C(=O)N[C@@H](Cc1c[nH]c2ccccc12)C(=O)N[C@@H](CCCNC(=N)N)C(=O)N[C@@H](Cc1ccc(O)cc1)C(=O)N[C@H](CCSC)C(N)=O` [compound 5] (Octanoyl-RWRWRY[dM]-NH2), the concentration giving a half-maximal response (EC50) on FPR2 stood at 0.0907 µM. Further, the IC50 with Pseudomonas aeruginosa turned out to be 25.4 µM; with Staphylococcus aureus it was 4.86 µM.
In the same order, the values of `CSCC[C@@H](NC(=O)[C@H](Cc1ccc(O)cc1)NC(=O)[C@H](CCCNC(=N)N)NC(=O)[C@H](Cc1c[nH]c2ccccc12)NC(=O)[C@H](CCCNC(=N)N)NC(=O)[C@H](Cc1c[nH]c2ccccc12)NC(=O)[C@@H](N)CCCNC(=N)N)C(N)=O` [compound 6] (H-RWRWRY[dM]-NH2) are 0.0303 µM, 6.43 µM and 39.9 µM.
